Data reported in the supplement of paper PMC10307832.

Compound: CCn1c(-c2nonc2N)nc2c(C#CC(C)(C)O)ncc(OC[C@H]3CCCNC3)c21 + N=C(N)NC(=N)NCCc1ccccc1 [Phenformin] (partner 250 µM)
Test: relative viability (nuclei count vs DMSO), 5 days (fraction); higher = more cells survive
Settings: first compound 0.01 µM
Method in brief: (§1)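 Each reported value is a median over duplicate plates. It expresses relative viability: treated-well nuclei count divided by vehicle-well nuclei count. Lung cancer cell lines in 1536-well plates were dosed by pin tool a day after seeding, alone with one drug or with a fixed anchor-drug dose plus five library-drug doses (not always all listed) in √10 steps, and nuclei were counted after 5 days.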

Cell Line | relative viability
NCI-H2087 | 0.454
NCI-H2342 | 0.532
SK-MES-1 | 0.654
H3255 | 0.403
COR-L23 | 0.444
COR-L 105 | 0.407
LOU-NH91 | 0.683
ChaGo-K-1 | 0.462
NCI-H2170 | 0.44
NCI-H2405 | 0.402
HOP-62 | 0.662
HCC-44 | 0.19
SW 900 | 0.505
LU99A | 0.847
BEN | 0.276
HARA | 0.361
HCC-78 | 0.655

Same assay, conditions: first compound 0.03162 µM

Cell Line | relative viability
NCI-H2087 | 0.572
NCI-H2342 | 0.627
SK-MES-1 | 0.642
H3255 | 0.406
COR-L23 | 0.399
COR-L 105 | 0.516
LOU-NH91 | 0.566
ChaGo-K-1 | 0.508
NCI-H2170 | 0.429
NCI-H2405 | 0.385
HOP-62 | 0.687
HCC-44 | 0.183
SW 900 | 0.621
LU99A | 0.839
BEN | 0.292
HARA | 0.445
HCC-78 | 0.755

Same assay, conditions: first compound 0.1 µM

Cell Line | relative viability
NCI-H2087 | 0.478
NCI-H2342 | 0.598
SK-MES-1 | 0.66
H3255 | 0.342
COR-L23 | 0.422
COR-L 105 | 0.468
LOU-NH91 | 0.686
ChaGo-K-1 | 0.502
NCI-H2170 | 0.416
NCI-H2405 | 0.295
HOP-62 | 0.635
HCC-44 | 0.194
SW 900 | 0.671
LU99A | 0.774
BEN | 0.28
HARA | 0.426
HCC-78 | 0.711

Same assay, conditions: first compound 0.3162 µM

Cell Line | relative viability
NCI-H2087 | 0.43
NCI-H2342 | 0.545
SK-MES-1 | 0.617
H3255 | 0.338
COR-L23 | 0.373
COR-L 105 | 0.417
LOU-NH91 | 0.607
ChaGo-K-1 | 0.438
NCI-H2170 | 0.429
NCI-H2405 | 0.355
HOP-62 | 0.649
HCC-44 | 0.184
SW 900 | 0.601
LU99A | 0.748
BEN | 0.297
HARA | 0.451
HCC-78 | 0.588

Same assay, conditions: first compound 1 µM

Cell Line | relative viability
NCI-H2087 | 0.465
NCI-H2342 | 0.574
SK-MES-1 | 0.673
H3255 | 0.329
COR-L23 | 0.389
COR-L 105 | 0.463
LOU-NH91 | 0.635
ChaGo-K-1 | 0.469
NCI-H2170 | 0.382
NCI-H2405 | 0.344
HOP-62 | 0.687
HCC-44 | 0.189
SW 900 | 0.49
LU99A | 0.837
BEN | 0.287
HARA | 0.495
HCC-78 | 0.67

Compound: CCOC1=CC=CC=C1N=NC2=C(NN(C2=O)C3=NC(=CS3)C4=CC=CC=C4)C [BAM7] + CC(=O)c1c(C)c2cnc(Nc3ccc(N4CCNCC4)cn3)nc2n(C2CCCC2)c1=O [Palbociclib] (partner 0.5 µM)
Test: as above
Settings: first compound 0.5 µM
Method in brief: as §1

Cell Line | relative viability
NCI-H2087 | 0.272
NCI-H2342 | 0.482
SK-MES-1 | 0.332
H3255 | 0.337
COR-L23 | 0.284
COR-L 105 | 0.407
LOU-NH91 | 0.458
ChaGo-K-1 | 1.02
NCI-H2170 | 0.38
NCI-H2405 | 0.507
HOP-62 | 0.45
HCC-44 | 0.956
LU99A | 0.425
BEN | 0.491
HARA | 0.253
HCC-78 | 0.487

Same assay, conditions: first compound 5 µM

Cell Line | relative viability
NCI-H2087 | 0.255
NCI-H2342 | 0.498
SK-MES-1 | 0.35
H3255 | 0.341
COR-L23 | 0.315
COR-L 105 | 0.387
LOU-NH91 | 0.569
ChaGo-K-1 | 0.965
NCI-H2170 | 0.381
NCI-H2405 | 0.577
HOP-62 | 0.385
HCC-44 | 0.974
SW 900 | 0.543
LU99A | 0.372
BEN | 0.493
HARA | 0.224
HCC-78 | 0.383

Same assay, conditions: first compound 15.81 µM

Cell Line | relative viability
NCI-H2087 | 0.229
NCI-H2342 | 0.531
SK-MES-1 | 0.308
H3255 | 0.359
COR-L23 | 0.294
COR-L 105 | 0.373
LOU-NH91 | 0.538
ChaGo-K-1 | 0.819
NCI-H2170 | 0.329
NCI-H2405 | 0.546
HOP-62 | 0.454
HCC-44 | 0.925
LU99A | 0.383
BEN | 0.546
HARA | 0.229
HCC-78 | 0.49

Same assay, conditions: first compound 50 µM

Cell Line | relative viability
NCI-H2087 | 0.292
NCI-H2342 | 0.539
SK-MES-1 | 0.272
H3255 | 0.355
COR-L23 | 0.275
COR-L 105 | 0.41
LOU-NH91 | 0.517
ChaGo-K-1 | 0.902
NCI-H2170 | 0.319
